The experiment concerns the target T1, Rar1 (Arabidopsis thaliana, UniProt Q9SE33).
T1 sequence (Q9SE33 1-226): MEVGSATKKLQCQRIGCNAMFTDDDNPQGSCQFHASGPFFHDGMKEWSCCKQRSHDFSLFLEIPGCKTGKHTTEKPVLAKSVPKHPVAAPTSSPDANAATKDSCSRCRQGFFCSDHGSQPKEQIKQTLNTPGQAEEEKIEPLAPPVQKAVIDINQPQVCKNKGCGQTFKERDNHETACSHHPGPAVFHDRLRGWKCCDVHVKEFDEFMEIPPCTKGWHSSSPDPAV
Put plainly: near-UV CD titration, non-linear fit at […] nm. The following applies: 4 °C; 1:1 site; authors call it weak non-specific binding; apparent Kd.

Regarding `Nc1ncnc2c1ncn2[C@@H]1O[C@H](COP(=O)(O)OP(=O)(O)O)[C@@H](O)[C@H]1O` [ADP], the Kd was determined as 2 mM.

(Values after publication PMC5776081, “The Stoichiometric Interaction of the Hsp90-Sgt1-Rar1 Complex by CD and SRCD Spectroscopy” (Frontiers in Molecular Biosciences, 2018).)
